According to US20240415114A1, “AGROCHEMICAL FORMULATIONS FOR MITIGATING CRYSTALLIZATION” (SYNGENTA CROP PROTECTION AG, priority 2021, published 2024):

Assays:
[1] = Solubility of fludioxonil in various vegetable oils; format: physicochemical; conditions: 5C, 25C and 50C, FIG. 1
Method: 0.5 g of fludioxonil technical was mixed separately with 5 g of various oils (peanut oil, castor oil, cottonseed oil, olive oil, canola oil, linseed oil, sunflower oil, safflower oil, corn oil, and soybean oil) and incubated at 3 different temperatures (5C, 25C and 50C). The mixtures were then centrifuged and the clear oil supernatant was recovered and analyzed for fludioxonil content.

[2] = Crystallization study of formulation containing fludioxonil (storage, 325 mesh sieve residue); format: physicochemical; conditions: 2 weeks Condition 1 then 2 weeks at 25° C. or 5° C., FIG. 3
Method: A formulation containing 0.72% w/w fludioxonil, 0.72% w/w picarbutrazox, 1.43% w/w sedaxane, 4.30% w/w thiabendazole and 1.07% w/w mefenoxam was prepared with castor oil or MK 116 Wax or soybean oil as the flow aid. Castor oil loading was maintained at 10% w/w. MK 116 wax loading was maintained at 5% w/w, whereas soybean oil concentration was varied over a range of 5-12% w/w. The formulation was aliquoted into 50 g samples and placed at temperatures of 50° C., 45° C. 38° C., a freeze thaw cycle going from 50° C. to −10° C. and at 25° C. These formulations were stored for 2 weeks at the indicated conditions (Condition 1), after which they were removed and placed at 25° C. or 5° C. for 2 weeks (Condition 2). After completion of the storage regime, the formulations were diluted with 200 mL of water and poured through a 325 mesh sieve. The residue was collected and analysed for the presence of fludioxonil.

SMILES: N#Cc1c[nH]cc1-c1cccc2c1OC(F)(F)O2 [fludioxonil]
- solubility of fludioxonil in oil ([1]; all other oils (peanut, cottonseed, olive, canola, linseed, sunflower, safflower, corn, soybean)): essentially the same solubilities
- solubility of fludioxonil in oil ([1]; castor oil): significantly improved solubility
- loss of fludioxonil (fludioxonil content of sieve residue) ([2]; MK 116 wax 5% w/w as flow aid): resulted in loss of fludioxonil
- loss of fludioxonil (fludioxonil content of sieve residue) ([2]; castor oil 10% w/w as flow aid): did not
- loss of fludioxonil (fludioxonil content of sieve residue) ([2]; soybean oil 5-12% w/w as flow aid): resulted in loss of fludioxonil
